PubChem BioAssay AID328 (DTP/NCI, 2004)
Several values for one entry are separate records, joined by “and”; a condition that tells them apart may be missing. Equal entries are not always repeated. Toxic doses and inconclusive results are not listed.

Test system: BDF1 mice, P388 leukemia ip, median survival T/C
Assay: NCI In Vivo Anticancer Drug Screen. Data for tumor model P388 Leukemia (intraperitoneal) in B6D2F1 (BDF1) mice
Details: endpoint: median survival time, higher = longer survival
Outline: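 In tumour-bearing mice, survival after compound treatment is set against the vehicle group and given as a quotient.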

COC(=O)[C@@]12OC[C@]34[C@H]([C@@H](O)[C@@H]1O)[C@@]1(C)CC(=O)C(O)=C(C)[C@@H]1C[C@H]3OC(=O)[C@H](OC(=O)/C=C(\C)C(C)C)[C@@H]24
T/C (dose: 0.03 mg/kg/injection, schedule: Q01DX009 (ip), vehicle: saline + alcohol): 151 % of control
T/C (dose: 0.03 mg/kg/injection, schedule: Q01DX009 (ip), vehicle: saline): 155 % of control
T/C (dose: 0.05 mg/kg/injection, schedule: Q01DX005 (iv), vehicle: saline + alcohol): 100 % of control
T/C (dose: 0.05 mg/kg/injection, schedule: Q01DX009 (ip), vehicle: saline + alcohol): 150 % of control
T/C (dose: 0.06 mg/kg/injection, schedule: Q01DX009 (ip), vehicle: other): 153 % of control
T/C (dose: 0.06 mg/kg/injection, schedule: Q01DX009 (ip), vehicle: saline): 170 % of control
T/C (dose: 0.06 mg/kg/injection, schedule: Q01DX009 (sc), vehicle: saline + alcohol): 100 % of control
T/C (dose: 0.06 mg/kg/injection, schedule: Q03HX024 (ip), vehicle: other): 155 % of control
T/C (dose: 0.06 mg/kg/injection, schedule: Q03HX024 (ip), vehicle: saline + alcohol): 152 % of control and 153 % of control
T/C (dose: 0.1 mg/kg/injection, schedule: Q01DX005 (iv), vehicle: saline + alcohol): 100 % of control
T/C (dose: 0.1 mg/kg/injection, schedule: Q01DX009 (ip), vehicle: saline + alcohol): 158 % of control
T/C (dose: 0.12 mg/kg/injection, schedule: Q01DX009 (ip), vehicle: other): 177 % of control
T/C (dose: 0.12 mg/kg/injection, schedule: Q01DX009 (ip), vehicle: saline + alcohol): 158 % of control
T/C (dose: 0.12 mg/kg/injection, schedule: Q01DX009 (ip), vehicle: saline with Tween-80): 151 % of control
T/C (dose: 0.12 mg/kg/injection, schedule: Q01DX009 (ip), vehicle: saline): 180 % of control
T/C (dose: 0.12 mg/kg/injection, schedule: Q03HX024 (ip), vehicle: other): 166 % of control
T/C (dose: 0.12 mg/kg/injection, schedule: Q03HX024 (ip), vehicle: saline + alcohol): 157 % of control
T/C (dose: 0.12 mg/kg/injection, schedule: Q03HX024 (ip), vehicle: saline with Tween-80): 150 % of control
T/C (dose: 0.13 mg/kg/injection, schedule: Q01DX009 (ip), vehicle: saline + alcohol): 158 % of control and 164 % of control and 173 % of control
T/C (dose: 0.13 mg/kg/injection, schedule: Q01DX009 (ip), vehicle: saline with Tween-80): 161 % of control
T/C (dose: 0.13 mg/kg/injection, schedule: Q01DX009 (sc), vehicle: saline + alcohol): 108 % of control
T/C (dose: 0.13 mg/kg/injection, schedule: Q03HX016 (ip), vehicle: saline + alcohol): 152 % of control
T/C (dose: 0.13 mg/kg/injection, schedule: Q03HX024 (ip), vehicle: saline + alcohol): 159 % of control
T/C (dose: 0.2 mg/kg/injection, schedule: Q01DX005 (iv), vehicle: saline + alcohol): 100 % of control
T/C (dose: 0.2 mg/kg/injection, schedule: Q01DX009 (ip), vehicle: saline + alcohol): 173 % of control
T/C (dose: 0.25 mg/kg/injection, schedule: Q01DX009 (ip), vehicle: other): 171 % of control
T/C (dose: 0.25 mg/kg/injection, schedule: Q01DX009 (ip), vehicle: saline with Tween-80): 183 % of control
T/C (dose: 0.25 mg/kg/injection, schedule: Q01DX009 (sc), vehicle: saline + alcohol): 108 % of control
T/C (dose: 0.25 mg/kg/injection, schedule: Q03HX016 (ip), vehicle: saline + alcohol): 165 % of control
T/C (dose: 0.25 mg/kg/injection, schedule: Q03HX024 (ip), vehicle: saline with Tween-80): 169 % of control
T/C (dose: 0.25 mg/kg/injection, schedule: Q04DX003 (ip), vehicle: saline + alcohol): 122 % of control
T/C (dose: 0.25 mg/kg/injection, schedule: Q04DX003 (ip), vehicle: saline with Tween-80): 120 % of control
T/C (dose: 0.4 mg/kg/injection, schedule: Q01DX005 (iv), vehicle: saline + alcohol): 107 % of control
T/C (dose: 0.4 mg/kg/injection, schedule: Q01DX009 (ip), vehicle: saline + alcohol): 185 % of control
T/C (dose: 0.44 mg/kg/injection, schedule: Q01DX009 (ip), vehicle: saline with Tween-80): 186 % of control
T/C (dose: 0.5 mg/kg/injection, schedule: Q01DX009 (ip), vehicle: other): 177 % of control
T/C (dose: 0.5 mg/kg/injection, schedule: Q01DX009 (ip), vehicle: saline with Tween-80): 175 % of control
T/C (dose: 0.5 mg/kg/injection, schedule: Q01DX009 (ip), vehicle: saline): 150 % of control
T/C (dose: 0.5 mg/kg/injection, schedule: Q01DX009 (oral), vehicle: saline + alcohol): 101 % of control and 110 % of control
T/C (dose: 0.5 mg/kg/injection, schedule: Q01DX009 (sc), vehicle: saline + alcohol): 116 % of control
T/C (dose: 0.5 mg/kg/injection, schedule: Q04DX003 (ip), vehicle: saline + alcohol): 120 % of control
T/C (dose: 0.5 mg/kg/injection, schedule: Q04DX003 (ip), vehicle: saline with Tween-80): 117 % of control
T/C (dose: 0.5 mg/kg/injection, schedule: Q08DX002 (ip), vehicle: saline + alcohol): 109 % of control
T/C (dose: 0.5 mg/kg/injection, schedule: Q08DX002 (ip), vehicle: saline with Tween-80): 116 % of control
T/C (dose: 0.65 mg/kg/injection, schedule: Q04DX003 (ip), vehicle: saline + alcohol): 123 % of control
T/C (dose: 0.67 mg/kg/injection, schedule: Q01DX009 (ip), vehicle: saline with Tween-80): 169 % of control
T/C (dose: 0.8 mg/kg/injection, schedule: Q01DX005 (ip), vehicle: saline + alcohol): 164 % of control
T/C (dose: 0.8 mg/kg/injection, schedule: Q01DX005 (iv), vehicle: saline + alcohol): 106 % of control and 119 % of control
T/C (dose: 1.0 mg/kg/injection, schedule: Q01DX001 (ip), vehicle: saline + alcohol): 107 % of control
T/C (dose: 1.0 mg/kg/injection, schedule: Q01DX001 (ip), vehicle: saline with Tween-80): 112 % of control
T/C (dose: 1.0 mg/kg/injection, schedule: Q01DX001 (oral), vehicle: saline + alcohol): 100 % of control and 101 % of control
T/C (dose: 1.0 mg/kg/injection, schedule: Q01DX001 (sc), vehicle: saline + alcohol): 114 % of control
T/C (dose: 1.0 mg/kg/injection, schedule: Q01DX009 (ip), vehicle: saline): 166 % of control
T/C (dose: 1.0 mg/kg/injection, schedule: Q01DX009 (oral), vehicle: saline + alcohol): 105 % of control and 107 % of control
T/C (dose: 1.0 mg/kg/injection, schedule: Q04DX003 (ip), vehicle: saline + alcohol): 123 % of control
T/C (dose: 1.0 mg/kg/injection, schedule: Q04DX003 (ip), vehicle: saline with Tween-80): 123 % of control
T/C (dose: 1.0 mg/kg/injection, schedule: Q08DX002 (ip), vehicle: saline + alcohol): 115 % of control
T/C (dose: 1.0 mg/kg/injection, schedule: Q08DX002 (ip), vehicle: saline with Tween-80): 99 % of control
T/C (dose: 1.08 mg/kg/injection, schedule: Q04DX003 (ip), vehicle: saline + alcohol): 123 % of control
T/C (dose: 1.5 mg/kg/injection, schedule: Q01DX009 (ip), vehicle: saline with Tween-80): 186 % of control
T/C (dose: 1.6 mg/kg/injection, schedule: Q01DX005 (ip), vehicle: saline + alcohol): 182 % of control
T/C (dose: 1.8 mg/kg/injection, schedule: Q04DX003 (ip), vehicle: saline + alcohol): 110 % of control and 123 % of control
T/C (dose: 2.0 mg/kg/injection, schedule: Q01DX001 (ip), vehicle: saline + alcohol): 106 % of control
T/C (dose: 2.0 mg/kg/injection, schedule: Q01DX001 (ip), vehicle: saline with Tween-80): 112 % of control
T/C (dose: 2.0 mg/kg/injection, schedule: Q01DX001 (oral), vehicle: saline + alcohol): 99 % of control and 101 % of control
T/C (dose: 2.0 mg/kg/injection, schedule: Q01DX001 (sc), vehicle: saline + alcohol): 113 % of control
T/C (dose: 2.0 mg/kg/injection, schedule: Q01DX009 (ip), vehicle: saline with Tween-80): 97 % of control
T/C (dose: 2.0 mg/kg/injection, schedule: Q01DX009 (oral), vehicle: saline + alcohol): 96 % of control and 111 % of control
T/C (dose: 2.0 mg/kg/injection, schedule: Q01DX009 (sc), vehicle: saline + alcohol): 99 % of control
T/C (dose: 2.0 mg/kg/injection, schedule: Q08DX002 (ip), vehicle: saline + alcohol): 99 % of control
T/C (dose: 2.0 mg/kg/injection, schedule: Q08DX002 (ip), vehicle: saline with Tween-80): 91 % of control
T/C (dose: 3.2 mg/kg/injection, schedule: Q01DX005 (iv), vehicle: saline + alcohol): 110 % of control
T/C (dose: 4.0 mg/kg/injection, schedule: Q01DX001 (oral), vehicle: saline + alcohol): 101 % of control and 105 % of control
T/C (dose: 4.0 mg/kg/injection, schedule: Q01DX009 (oral), vehicle: saline + alcohol): 97 % of control and 115 % of control
T/C (dose: 8.0 mg/kg/injection, schedule: Q01DX001 (oral), vehicle: saline + alcohol): 98 % of control and 99 % of control
T/C (dose: 45.0 micrograms/kg/injection, schedule: Q01DX009 (ip), vehicle: saline + alcohol): 155 % of control
T/C (dose: 90.0 micrograms/kg/injection, schedule: Q01DX009 (ip), vehicle: saline + alcohol): 180 % of control
T/C (dose: 177.0 micrograms/kg/injection, schedule: Q01DX009 (ip), vehicle: saline + alcohol): 190 % of control
T/C (dose: 389.0 micrograms/kg/injection, schedule: Q01DX004 (ip), vehicle: saline + alcohol): 159 % of control
T/C (dose: 400.0 micrograms/kg/injection, schedule: Q01DX009 (ip), vehicle: saline + alcohol): 185 % of control
T/C (dose: 432.0 micrograms/kg/injection, schedule: Q01DX009 (ip), vehicle: saline + alcohol): 180 % of control and 181 % of control
T/C (dose: 720.0 micrograms/kg/injection, schedule: Q01DX009 (ip), vehicle: saline + alcohol): 182 % of control
T/C (dose: 1200.0 micrograms/kg/injection, schedule: Q01DX009 (ip), vehicle: saline + alcohol): 179 % of control
T/C (dose: 2000.0 micrograms/kg/injection, schedule: Q01DX009 (ip), vehicle: saline + alcohol): 189 % of control
